Laboratory results as given in US20250034264A1, “REGULATING T CELL IMMUNE RESPONSE THROUGH IGF-I RECEPTOR (IGF-1R)” (The Regents of the University of Michigan, priority 2021, published 2025).

Tests used:
Assay type in all cases: cell-based, human
fibrocytes [1] = assay: RNA Pol II ChIP transcription assay; conditions: 50 μg/mL
Description: RNA Pol II ChIP transcription assay Transcriptional assays were performed using the method of Wells and Farnham (Methods (San Diego, Calif.) 26, 48-56(2002). Confluent cultures were treated with human Isotype IgG or teprotumumab (50 μg/mL) in DMEM with 10% FBS for 3 d, rinsed, and shifted to DMEM with 1% FBS for 16 h with the respective additives, and then treated without or with bTSH (5 mU/mL) for 2 h. Cross-linked protein/DNA and isolated chromatin fragments were immunoprecipitated with target antibodies: anti-HLA-DPB1 [EPR11226] (cat. #abl57210), anti-CD80 [EPR22183] (cat. #ab225674), anti-CD86 [EPR21962] (cat. #ab239075), and anti-PD-L1 [EPR19759](cat. #ab213524),) from Abcam (Cambridge, MA) using the Pierce™ Agarose Chip Kit (Thermo Scientific, cat #26156). Eluted fractions were reverse cross-linked and isolated DNA subjected to RT-PCR using EpiTect ChIP qPCR Primer Assay for human HLA-DRA (cat. #GPH1011269(-)02A, HLA-DRB1 (cat. #GPH1024837(-)02A), CD80 (cat. #GPH1023189(-)02A), CD86 (cat. #GPH1009502(-)02A), PD-L1 (cat. #GPH1012902(-)02A, Qiagen. GAPDH served as the housekeeping gene and values were generated according to the protocol provided by the supplier.

fibrocytes [2] = assay: IL-10, icIL-1RA, sIL-1RA expression (PCR, ELISA)
Description: FIGS. 11A-11F are graphs showing teprotumumab attenuates bTSH induced IL-10 while enhancing icIL-1RA and sIL-1RA expression in fibrocytes and GD-OF. Fibrocyte cultures were treated with teprotumumab (50 μg/ml), rhSlit2 (50 ng/ml) or human Isotype IgG for 7-9 d, with bTSH (5 mIU/mL) for final 6 h. RNA was extracted and reverse transcribed. Isolated cDNA was subjected to quantitative real-time PCR for IL-10 (FIGS. 11A and 11B), icIL-1RA (FIGS. 11C and 11D). Media and cellular proteins were collected and subjected to specific ELISAs for icIL-1RA and sIL-1RA (FIGS. 11E, 11F, 11G, and 11H). PCR values were normalized to their respective GAPDH levels. icIL-1RA and sIL-1RA protein levels were normalized to cellular protein levels. Data are expressed as the mean±SD of three independent determinations. Experiments were repeated three times. **, p<0.01; ***. P<0.001.
IL-12, IL-23, IL-10, HA and BAFF ELISAs. Confluent cultures were treated with nothing or teprotumumab (50 μg/mL) for 5 d, without or with bTSH (5 mU/mL) for the intervals indicated or 72 h. Media and rinsed cell layers were homogenized in 0.1M NaCl and assayed for HA content using an ELISA kit (K-1200) from Echelon Biosciences Inc. (Salt Lake City, UT) according to manufacturer's instructions. A BAFF specific ELISA, purchased from R & D systems, was used in accordance with the manufacturer's instructions.
(§1) Real-time PCR Confluent fibrocyte and GD-OF cultures were incubated with bTSH (5 mIU/mL), teprotumumab (50 μg/mL) or linsitinib (1 μM) for the time intervals indicated, washed with PBS and RNA was extracted with the Aurum Total RNA Mini Kit (cat. #732-6820, Bio-Rad, Hercules, CA). Cellular RNA (2 μg) was reverse transcribed using QuantiTect Reverse Transcription kit (cat. #205314, Qiagen (Germantown, MD) and real-time PCR was performed using an Applied Biosystems instrument with QuantiTect SYBR Green PCR kit (cat. no. 204143; Qiagen, Frederick, MD). Primer sequences were as follows.

GD-OF = assay: IL-23p19 and IL-12p35 mRNA expression, real-time PCR
Description: FIGS. 10A-10F are graphs showing the divergent effect of teprotumumab on bTSH induced IL-23p19 and IL-12p35 expression on fibrocytes and GD-OF. Rinsed fibrocyte and GD-OF monolayers were incubated with or without 50 μg/ml teprotumumab (FIGS. 10A and 10B) or 1 μM linsitinib (FIGS. 10C and 10D) and human Isotype IgG for 7-9 d, and bTSH (5 mIU/mL) was added for 6 h. Harvested RNA was reverse transcribed and isolated cDNA was subjected to quantitative real-time PCR for IL-23p19 and IL-12p35 mRNA levels. Values were normalized to their respective GAPDH levels and are expressed as the mean±SD of three independent determinations. Experiments were repeated three times. FIGS. 10E and 10F are graphs showing the levels of IL-23 protein when rinsed fibrocyte and GD-OF monolayers were incubated with or without 50 μg/ml teprotumumab. **, p<0.01; ***. P<0.001.
FIGS. 15A-15C are dose-response curves of teprotumumab effects on IL-6 expression/induction by bTSH (FIG. 15A); HAS2 expression/induction by bTSH (FIG. 15B); IL-12p35 expression/induction by bTSH (FIG. 15C). Following indicated treatments, cellular RNA was harvest from rinsed GD-OF cell layers, reversed transcribed and subjected to real-time PCR. Values were normalized to their respective GAPDH levels.
Graves' disease-orbital fibroblast (GD-OF) preparation and cultivtion GD-OF were isolated from orbital adipose/connective tissues removed during surgical orbital decompression surgery, as described ((Smith, T. J., et al., (2002) The Journal of clinical endocrinology and metabolism 87, 385-392). While the fraction of CD34^+ OF comprising GD-OF strains vary somewhat, the ratios of CD34^+/CD34^− OF are usually 50:50 in the early passages utilized in these studies (passages 2-11). Pure CD34^+ OF and CD34^− OF subsets were generated by staining for 30 m at 4° C. with fluorescein isothiocyanate-conjugated […] CD34 or its isotype control followed by cytometric cell sorting using a FACSAria III (BD Biosciences) instrument. Cells were sorted under sterile conditions into either CD34^+ OF, and CD34 OF subsets which were then re-cultured and treated without or with bTSH (5 mU/mL) or the other test compounds, as indicated, for 6 hrs, as indicated.
as §1

[3] = teprotumumab 50 μg/ml or rhSlit2 50 ng/ml, 7-9 d
[4] = teprotumumab 50 μg/ml or linsitinib 1 μM, 7-9 d

## teprotumumab
Fibrocytes [1]
  basal and bTSH-induced transcription of MHC II, CD80, CD86, PD-L1 genes: attenuated
Fibrocytes [2]; ELISA, fibrocytes
  effects on icIL-1RA protein levels: minimal
Fibrocytes [2]; [3]
  IL-10 mRNA, basal and bTSH-provoked expression: downregulated
  basal and bTSH-dependent icIL-1RA and sIL-1RA mRNA levels: upregulated
GD-OF; dose-response curves, GD-OF
  dose dependence of effects (FIG. 15: IL-6, HAS2, IL-12p35 expression/induction by bTSH): dose-dependent
GD-OF; [4]
  IL-12p35 expression, basal and induction by bTSH: enhances
  IL-23p19 expression, basal and induction by bTSH: inhibited
